Values after ≈ are worked out from the molar mass of the structure shown.
System: infected macrophages
Assay: in vitro activity relative to infected macrophages, microcrystals containing cholesterol
Type: cell-based

With `C[C@@H]1[C@H](O)[C@@H](C)/C=C/C=C/C=C/C=C/C=C/C=C/C=C/[C@H](O[C@@H]2O[C@H](C)[C@@H](O)[C@H](N)[C@@H]2O)C[C@@H]2O[C@](O)(C[C@@H](O)C[C@@H](O)[C@H](O)CC[C@@H](O)C[C@@H](O)CC(=O)O[C@H]1C)C[C@H](O)[C@H]2C(=O)O` [control amphotericin B, amphotericin B] as the molecule, how does the “MIC on infected macrophages” value read?
Its value is 0.4 µM (≈ 0.37 µg/mL).
